In assay [1] the test system is HT-29. As to the kind of experiment: Agonistic activity in human HT-29 colon cancer cells. The assay is classed as functional, cell-based.
Assay [2] deals with OVCAR-3. As to the kind of experiment: Agonistic activity in human OVCAR-3 (ovarian cancer cells). The class given is functional, cell-based.

Molecules are shown by their SMILES.

The term EC50 denotes the concentration needed to bring the measured effect to its halfway point. For `CCCCCCCCCCCCCCCCCC(=O)OC[C@@H](COP(O)(O)=S)OC`, the figures for the EC50 in assay [1] and in assay [2] were below 1 mM and 46.5 nM, respectively.

`CCCCCCCCCCCCCCCCCC(=O)OC[C@H](COP(O)(O)=S)OC`: the EC50 in assay [1] was below 1 mM; in assay [2], 9 nM.

For the origin of these results see ChEMBL document CHEMBL1144942, “Enantioselective responses to a phosphorothioate analogue of lysophosphatidic acid with LPA3 receptor-selective agonist activity” (J Med Chem, 2003).
